Measured values: ChEMBL document CHEMBL1158818, “Alkaloids from the sponge Monanchora unguifera” (J Nat Prod, 2005)

How the values were obtained:
Format in all cases: functional, cell-based
A549 = assay: Cytotoxicity against human A549 cells
P388 = assay: Cytotoxicity against mouse P388 cells
HT-29 = assay: Cytotoxicity against human HT-29 cells
DU-145 = assay: Cytotoxicity against human DU145 cells
SK-MEL-28 = assay: Cytotoxicity against human SK-MEL-28 cells

Measured: IC50

CCCCCCC[C@@H]1C[C@@H]2CCC3=C(C(=O)OCCCCCCC[C@@H]4C[C@@H]5CCC6=C(C(=O)OCCCCNC(=N)N)C(C)N=C(N4)N65)C(C)N=C(N1)N32 (stereo not given in full) [BATZELLADINE J]
> 1 µg/mL: all assays above
